Data published in the supplement of paper PMC10307832.

What was measured:
Test in all cases: relative viability (nuclei count vs DMSO), 5 days (fraction); higher = more cells survive
[1] = compound: C1=CC2=NC=CN=C2C=C1/C=C/3\C(=O)NC(=O)S3 + Nc1ncn([C@H]2C[C@H](O)[C@@H](CO)O2)c(=O)n1 [Decitabine] (partner 2 µM)
Summary of the method: (§1)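 One day after seeding in 1536-well plates, lung cancer cell lines were dosed by pin tool. Dosing was either single-drug or a fixed anchor-drug dose plus five library-drug doses (not always all listed) in √10 steps. After 5 days, nuclei were stained in one fix-and-stain step and counted on 4× images, and relative viability is the nuclei count of treated wells over that of vehicle wells, given as the median of duplicate plates.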

[2] = compound: C1=CC2=NC=CN=C2C=C1/C=C/3\C(=O)NC(=O)S3 + CCNC(=O)c1noc(-c2cc(C(C)C)c(O)cc2O)c1-c1ccc(CN2CCOCC2)cc1 [Luminespib] (partner 0.01 µM)
Summary of the method: as §1

BGJ398 + Linsitinib = compound: CCN1CCN(c2ccc(Nc3cc(N(C)C(=O)Nc4c(Cl)c(OC)cc(OC)c4Cl)ncn3)cc2)CC1 [BGJ398] + C[C@]1(O)C[C@@H](c2nc(-c3ccc4ccc(-c5ccccc5)nc4c3)c3c(N)nccn32)C1 [Linsitinib] (partner 1 µM)
Summary of the method: as §1

[3] = compound: C1=CC2=NC=CN=C2C=C1/C=C/3\C(=O)NC(=O)S3 + N=C(N)NC(=N)NCCc1ccccc1 [Phenformin] (partner 250 µM)
Summary of the method: as §1

Cell Line	relative viability ([1]; first compound 0.02 µM)	relative viability ([1]; first compound 0.06325 µM)	relative viability ([1]; first compound 0.2 µM)	relative viability ([1]; first compound 0.6325 µM)	relative viability ([1]; first compound 2 µM)	relative viability ([2]; first compound 0.06325 µM)	relative viability ([2]; first compound 0.2 µM)	relative viability ([2]; first compound 0.6325 µM)	relative viability ([2]; first compound 2 µM)	relative viability (BGJ398 + Linsitinib; first compound 0.01 µM)	relative viability (BGJ398 + Linsitinib; first compound 0.03162 µM)	relative viability (BGJ398 + Linsitinib; first compound 0.1 µM)	relative viability (BGJ398 + Linsitinib; first compound 0.3162 µM)	relative viability (BGJ398 + Linsitinib; first compound 1 µM)	relative viability ([3]; first compound 0.02 µM)	relative viability ([3]; first compound 0.06325 µM)	relative viability ([3]; first compound 0.2 µM)	relative viability ([3]; first compound 0.6325 µM)	relative viability ([3]; first compound 2 µM)	relative viability ([2]; first compound 0.02 µM)
ABC-1	1.04	1.31	1.4	1.1	0.806	0.872	0.616	0.519	0.982	0.685	1.01	0.746	0.999	0.658	0.265	0.316	0.215	0.231	0.259	–
NCI-H650	0.32	0.287	0.356	0.319	0.342	0.872	0.755	0.709	0.627	0.822	1.01	0.959	0.875	0.909	0.453	0.487	0.527	0.448	0.348	0.719
NCI-H2085	0.495	0.457	0.578	0.539	0.566	0.44	0.435	0.452	0.428	0.872	0.943	0.975	1.01	0.934	0.747	0.721	0.716	0.671	0.65	0.489
NCI-H1793	0.417	0.391	0.559	0.447	0.552	0.188	0.169	0.169	0.174	0.804	–	0.833	0.71	0.756	0.416	0.32	0.452	0.334	0.322	0.201
LC-2-ad	0.781	0.862	0.84	0.86	0.727	0.727	1.08	1.07	0.739	0.827	0.88	0.817	0.87	0.843	0.61	0.601	0.655	0.578	0.417	0.984
COR-L 105	0.599	0.69	0.673	0.683	0.593	0.997	0.816	0.695	0.618	0.824	1.09	0.851	0.777	0.8	0.46	0.43	0.494	0.5	0.413	0.727
NCI-H1355	0.348	0.353	0.357	0.367	0.33	0.516	0.751	0.631	0.608	0.741	0.807	0.827	0.779	0.823	0.435	0.374	0.489	0.431	0.392	0.687
H3255	0.6	0.649	0.595	0.534	0.622	0.793	0.909	0.857	0.809	0.887	0.35	0.919	0.708	1.05	0.368	0.348	0.358	0.358	0.3	0.879
